Holding throughout (format): in vivo
Series [1] deals with Aedes aegypti. As to the kind of experiment: twelve well tissue culture plate deposit test, knockdown (B23). The settings on record: 1 h, read-out: Aedes aegypti 1 hour % KD. How it is done:
(§1) The individual wells of a twelve (12) well tissue culture plates were treated with 100 μl of an ethanol solution containing a test compound at a defined concentration. Once the deposits were dry, five non-blood fed adult female Aedes aegypti or Anopheles stephensi (between two to five day old) were added to each well, and sustained with a 10% sucrose solution in a cotton wool plug. Assessment of the knockdown after 1 hour was carried out. Where multiple replicates of a treatment have been undertaken, the mean of those replicates is reported.

Series [2] deals with Anopheles stephensi. The series is described as above. As to conditions: 1 h, read-out: Anopheles stephensi 1 hour % KD. How it is done:
as §1

Series [3] concerns Anopheles stephensi. As to the kind of experiment: WHOPES tunnel test with Hemotek membrane feeding device (B11-B14). How it is done: (§2) The following tests are based on the “WHOPES tunnel tests” (described at http://apps.who.int/iris/bitstream/10665/80270/1/9789241505277_eng.pdf)
(§3) For examples B11-B15 the WHOPES tunnel test procedure was followed, except that live guniea pig baits were replaced with a Hemotek membrane feeding device, filled with blood and kept constant at 37° C. to mimic a human host.
For examples B11-B14, the tunnel test was conducted with Anopheles stephensi;
(§4) All tests were done under standardised laboratory controlled conditions (27° C.+2° C. under subdued light). The tunnel apparatus was a 60×30×30 cm glass case open at each end and the floor was lined with wet blue roll in order to maintain humidity. A 30×30×30 cm cage, covered in untreated netting, was placed at the release end. The test nets were cut to 25×25 cm squares and fitted into cardboard frames that allow a 20×20 cm area to be exposed. Nine holes, 1 cm in diameter, were made in the netting in the pattern specified in the WHOPES test. The frames were then fitted into the tunnel one third of the way down its length. A Hemotek device, filled with blood and kept constant at 37° C. to mimic a human host, was placed in the smaller area of the glass tunnel behind the test netting, and the end of the tunnel closed with a netting screen. A human sat at the Hemotek end of the tunnels for the duration of the test. At the start of the test, 100 female mosquitoes (non-blood fed, aged 5-8 days) were introduced into the cage. Mosquitoes are free to fly in the tunnel but have to make contact with the piece of netting and locate the holes in it before passing through to reach the bait.
(§5) After 7 hours the mosquitoes were counted in each section of the tunnel. The number of mosquitoes knocked down and blood fed were recorded. Blood-feeding inhibition was assessed by comparing the proportion of blood-fed females (alive or dead) in treated and control tests. Four tunnels were run simultaneously each day, with one control containing untreated netting included with all runs. Three replicates were carried out per treatment. In case of multiple tests, the mean value is reported.

For series [4], the system named is Anopheles gambiae, resistant strain AKRON. As to the kind of experiment: WHOPES tunnel test with Hemotek membrane feeding device (B15). The settings on record: Table B15. How it is done: as §2, §3
For example B15, the tunnel test was conducted with Anopheles gambiae, resistant strain AKRON.
(§6) The commercial standard Olyset nets used in certain examples are 2% w/w permethrin (approx. 1000 mg/m2, although not all of that is available on the surface at any one time, as a good proportion is in the polymer).
All tests were done under standardised laboratory controlled conditions (27° C.+2° C. under subdued light). The tunnel apparatus was a 60×30×30 cm glass case open at each end and the floor was lined with wet blue roll in order to maintain humidity. A 30×30×30 cm cage, covered in untreated netting, was placed at the release end. The test nets were cut to 25×25 cm squares and fitted into cardboard frames that allow a 20×20 cm area to be exposed. […]
After 7 hours the mosquitoes were counted in each section of the tunnel. The number of mosquitoes knocked down and blood fed were recorded. Blood-feeding inhibition was assessed by comparing the proportion of blood-fed females (alive or dead) in treated and control tests. […]

The test system of series [5] is Anopheles gambiae Kisumu. Put plainly: WHOPES tunnel test with live guinea pig baits, Burkina Faso (B16). The settings on record: Table B16; for Blood fed: number of mosquitoes. How it is done: as §2
(§7) For examples B16-B20, the WHOPES tunnel test procedure was followed with live guniea pig baits wherein B16-B18 were conduced in Burkina Faso with Anopheles gambiae Kisumu, Anopheles coluzzii VK7 lab strain and Anopheles gambiae s.l. VK field strain, respectively; and B19-B20 were conducted in Cote d′Ivoire with Anopheles gambiae Kisumu and Anopheles gambiae Tiassale field strain, respectively.
as §6, §4, §5

The subject of series [6] is Anopheles coluzzii VK7 lab strain. As to the kind of experiment: WHOPES tunnel test with live guinea pig baits, Burkina Faso (B17). As to conditions: Table B17; for Blood fed: number of mosquitoes. How it is done: as §2, §7, §6, §4, §5
Series [7] concerns Anopheles gambiae s.l. VK field strain. As to the kind of experiment: WHOPES tunnel test with live guinea pig baits, Burkina Faso (B18). The settings on record: Table B18; for Blood fed: number of mosquitoes. How it is done:
as §2, §7, §6, §4, §5

Series [8] deals with Anopheles gambiae Kisumu. Put plainly: WHOPES tunnel test with live guinea pig baits, Cote d′Ivoire (B19). The settings on record: Table B19; for Blood fed: number of mosquitoes. How it is done:
as §2, §7, §6, §4, §5

Series [9] deals with Anopheles gambiae Tiassale field strain. As to the kind of experiment: WHOPES tunnel test with live guinea pig baits, Cote d′Ivoire (B20). The settings on record: Table B20; for Blood fed: number of mosquitoes. How it is done:
as §2, §7, §6, §4, §5

The test system of series [10] is non-blood fed adult female mosquitoes. As to the kind of experiment: Bottle assay based on the CDC bottle assay (B21, B22). As to conditions: Table B21; rate not given. How it is done:
Based on the “CDC bottle assay” (described at http://www.cdc.gov/malaria/resources/pdf/fsp/ir_manual/ir_cdc_bioassay_en.pdf) 1 ml of ethanol containing a test compound at a defined concentration was added to a 250 ml glass bottle and the bottles were placed on a rolling table to coat the inner surfaces as the solvent evaporated. Once dry, twenty five non-blood fed adult female mosquitoes of the appropriate species and strains (each three day old) were aspirated from the stock culture and gently blown into the exposure bottles. The lid of the bottle was replaced and the bottle placed upright out of direct sun light under standard culture conditions, nominally 28° C. and 60-80% relative humidity.
A stopwatch was started, and the assessment of the knock-down were made after 15 mins and 60 minutes. A mosquito was said to be knocked down if it was unable to stand, following the CDC definition. The bottles were replaced in an upright position when not being assessed.
After one hour the mosquitoes were carefully removed from the bottle with an aspirator and placed in a recovery cup. The mosquitoes were supplied with a 10% sucrose solution on a cotton wool bung, and stored under culture conditions. Assessments of the mortality were made after 24 hours and 48 hours (B21).
Each treatment was replicated a minimum of four times, with the mean knockdown or mortality recorded. In each study, a set of bottles was infested with a known insecticide susceptible strain of mosquitoes from the same genera as the resistant strains.

Series [11] has as its system Anopheles stephensi. As to the kind of experiment: six well tissue culture plate deposit test, knockdown and mortality (Examples B1-B10). As to conditions: for 24 hr mort / 48 hr mort / KD: Table B4, alone or +Comp. (1.3); for KD: knockdown after 1 hour; for knockdown after 1 hour: Alone or Plus Compound (1.3). How it is done:
The individual wells of six (6) well tissue culture plates were treated with 250 μl of an ethanol solution containing a test compound at a defined concentration. Once the deposits were dry, ten non-blood fed adult female Anopheles stephensi (between two to five day old) were added to each well, and sustained with a 10% sucrose solution in a cotton wool plug. Assessment of the knockdown after 1 hour (Tables B1-B10), and mortality after 24 and 48 hours (Tables B1-B4) was carried out.
In case of multiple tests, the mean value is reported.

[12] abbreviates: Table B12, Deltamethrin 5 mg/m2.

Molecules are shown by their SMILES.

For the compound `FC(F)(F)c1ccncc1-c1noc(-c2cccc(Cl)c2)n1` [Compound 1.1], the pest or weed control at 0.2 ppm was found to be 100% in series [1] (Rate 0.2 PPM) and 40% in series [2] (Rate 0.2 PPM). In addition, the pest or weed control at 2 ppm in series [1] (Rate 2 PPM) and in [2] (Rate 2 PPM) was 100% throughout. Also, the pest or weed control at 20 ppm in series [1] (Rate 20 PPM) and in series [2] (Rate 20 PPM) was 100% throughout. Also, the pest or weed control at 200 ppm in series [1] (Rate 200 PPM) and in series [2] (Rate 200 PPM) was 100% throughout.
With `NC(=O)c1cnccc1C(F)(F)F` [Compound 1.3], the “% Blood fed” value in [3] (Table B11, treated net, Rate 10 mg/m2) is 3%; in [4] (Compound (1.3) 25 mg/m2) it was 0.3%; in series [5] (50 mg/m2), 1.5%; in series [5] (200 mg/m2) it was 0.3%; in series [6] (50 mg/m2), 3.3%; in [6] (200 mg/m2) it was 1.5%. The “% Blood fed” value in series [7] (50 mg/m2) is recorded as 1.3%; in [7] (200 mg/m2), 1.8%; in series [8] (50 mg/m2) it was 25.0%; in series [8] (200 mg/m2), 23.1%; in series [9] (50 mg/m2), 24.5%; in [9] (200 mg/m2), 3.3%. Also, the Blood fed in series [5] (50 mg/m2) worked out at 5; in series [5] (200 mg/m2), 1; in series [6] (50 mg/m2), 10; in series [6] (200 mg/m2) it was 6; in series [7] (50 mg/m2), 4; in series [7] (200 mg/m2) it was 6. The Blood fed in series [8] (50 mg/m2) was determined as 70; in [8] (200 mg/m2) it was 74; in series [9] (50 mg/m2), 66; in [9] (200 mg/m2), 10.
With `CC1(C)[C@H](C(=O)O[C@H](C#N)c2cccc(Oc3ccccc3)c2)[C@@H]1C=C(Br)Br` [Deltamethrin], in [3] (setting [12]), the “% 1 hour KD” value is listed as 0% and the “% Blood fed” value worked out at 0%.
As to `N#CCNC(=O)c1cnccc1C(F)(F)F` [Flonicamid], in [10], the “24 hour % mort” value is 0%, the “48 hour % mort” value is 0% and the “% 1 hour KD” value was 0%.
Take `COC(=O)N(C(=O)N1CO[C@@]2(C(=O)OC)Cc3cc(Cl)ccc3C2=N1)c1ccc(OC(F)(F)F)cc1` [Indoxacarb]: the 24 hr mort in series [11] (Rate 12.5 ppm), in series [11] (Rate 25 ppm), in series [11] (Rate 50 ppm) and in [11] (Rate 100 ppm) was 0.0 in each case. Further, the 48 hr mort in series [11] (Rate 12.5 ppm), in series [11] (Rate 25 ppm), in series [11] (Rate 50 ppm) and in [11] (Rate 100 ppm) was 0.0 each time. Moreover, the KD in series [11] (Rate 12.5 ppm), in series [11] (Rate 25 ppm), in series [11] (Rate 50 ppm) and in series [11] (Rate 100 ppm) was 0.0 each time. Moreover, the “knockdown after 1 hour” value came out at 0 in [11] (Table B7, Rate 25 ppm); 0 in series [11] (Table B7, Rate 50 ppm); 0 in series [11] (Table B7, Rate 100 ppm); 0 in series [11] (Table B7, Rate 200 ppm). Also, in series [3] (Table B14, Indoxacarb 20 mg/m2), the “% 24 hour mortality” value amounted to 7.6%. The “% Blood fed” value in series [4] (Indoxacarb 200 mg/m2) came out at 4.4%.
In the case of `CCN(CC)c1nc(C)cc(OP(=S)(OC)OC)n1` [pirimiphos-methyl], the “knockdown after 1 hour” value came to 0.0 in series [11] (Table B10, Rate 0.0625 ppm) and 0.0 in series [11] (Table B10, Rate 0.125 ppm).

Values taken from US20260191200A1, “COMPOUNDS AND COMPOSITIONS HAVING KNOCK-DOWN OR BLOOD FEED INHIBITION ACTIVITY AGAINST INSECT PESTS” (priority 2015, published 2026).
